From PubChem BioAssay AID248 (DTP/NCI, 2004)
Values joined by “and” are separate entries in the source; they are usually repeats but may differ in a detail not shown here. Equal entries are not always repeated. Toxic doses and inconclusive results are not listed.

Tested on: L1210 leukemia ip in BDF1 mice, survival T/C
Assay: NCI In Vivo Anticancer Drug Screen. Data for tumor model L1210 Leukemia (intraperitoneal) in B6D2F1 (BDF1) mice
Settings: endpoint: mean survival time, higher = longer survival
Procedure, shortened: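 Tumor was transplanted into mice, which were then dosed with test compound or vehicle alone. Survival was recorded for each group, and the treated figure was expressed relative to the control figure.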

[1] = dose: 100.0 mg/kg/injection, schedule: Q04DX003 (ip), vehicle: saline
[2] = dose: 100.0 mg/kg/injection, schedule: Q01DX001 (ip), vehicle: saline
[3] = dose: 100.0 mg/kg/injection, schedule: Q04DX003 (ip), vehicle: saline with Tween-80
[4] = dose: 200.0 mg/kg/injection, schedule: Q04DX003 (ip), vehicle: saline with Tween-80
[5] = dose: 400.0 mg/kg/injection, schedule: Q04DX003 (ip), vehicle: saline with Tween-80
[6] = dose: 25.0 mg/kg/injection, schedule: Q01DX009 (ip), vehicle: saline
[7] = dose: 50.0 mg/kg/injection, schedule: Q01DX009 (ip), vehicle: saline

Question: `O=C(c1ccc2cc(Cl)c3ccccc3c2c1)C(Br)CBr` (stereo unspecified) was tested. Which T/C (dose: 55.0 mg/kg/injection, schedule: Q01DX Z (ip), vehicle: methylcellulose (MC)) did it give?
Answer: 88 % of control

Question: And the T/C (dose: 83.0 mg/kg/injection, schedule: Q01DX Z (ip), vehicle: methylcellulose (MC))?
Answer: 93 % of control

Question: And the T/C (dose: 125.0 mg/kg/injection, schedule: Q01DX Z (ip), vehicle: methylcellulose (MC))?
Answer: 93 % of control

Question: What does the source list for `CC(=O)OC1(c2ccccc2)OC(=O)C(C)(C)c2ccccc21` (stereo unspecified)?
Answer: T/C (dose: 100.0 mg/kg/injection, schedule: Q01DX001 (ip), vehicle: saline with Tween-80): 94 % of control; T/C (dose: 200.0 mg/kg/injection, schedule: Q01DX001 (ip), vehicle: saline with Tween-80): 91 % of control

Question: For `O=C1C2CCN(CC2)C1C(c1ccccc1)c1ccccc1` (stereo unspecified), which T/C [1] is on record?
Answer: 96 % of control

Question: What about the T/C (dose: 200.0 mg/kg/injection, schedule: Q04DX003 (ip), vehicle: saline) of the same compound?
Answer: 102 % of control

Question: And the T/C (dose: 400.0 mg/kg/injection, schedule: Q04DX003 (ip), vehicle: saline)?
Answer: 100 % of control

Question: What does the source list for `CCC/C=C/CCN1CC1`?
Answer: T/C (dose: 20.0 mg/kg/injection, schedule: Q01DX001 (ip), vehicle: saline): 97 % of control; T/C (dose: 40.0 mg/kg/injection, schedule: Q01DX001 (ip), vehicle: saline): 97 % of control; T/C [2]: 86 % of control

Question: With `CCOC(=O)Nc1cc2n[nH]nc2c(NC(c2ccccc2)c2ccccc2)n1` as the compound, how does the T/C [3] read?
Answer: 94 % of control

Question: And the T/C [4]?
Answer: 87 % of control

Question: What about the T/C [5] of the same compound?
Answer: 92 % of control

Question: For `Cc1nc(CN(C)C)c2cnccn12`, which T/C [6] is on record?
Answer: 109 % of control

Question: What about the T/C [7] of the same compound?
Answer: 113 % of control

Question: What about the T/C [1] of the same compound?
Answer: 98 % of control

Question: Which T/C (dose: 44.0 mg/kg/injection, schedule: Q01DX001 (ip), vehicle: other) does the source give for `CC/C(=N/OC(=O)NC)c1ccccc1` here?
Answer: 94 % of control and 106 % of control

Question: What about the T/C (dose: 67.0 mg/kg/injection, schedule: Q01DX001 (ip), vehicle: other) of the same compound?
Answer: 93 % of control and 110 % of control

Question: And the T/C (dose: 100.0 mg/kg/injection, schedule: Q01DX001 (ip), vehicle: other)?
Answer: 102 % of control and 110 % of control

Question: What about the T/C (dose: 150.0 mg/kg/injection, schedule: Q01DX001 (ip), vehicle: other) of the same compound?
Answer: 96 % of control and 108 % of control

Question: With `CS(=O)(=O)OCCN(CCOS(C)(=O)=O)c1ccc(C=Nc2ccc(-c3csc(Cc4ccccc4)n3)cc2)cc1` as the compound, how does the T/C (dose: 20.0 mg/kg/injection, schedule: Q04DX003 (ip), vehicle: Klucel (hydroxypropylcellulose) (HPC)) read?
Answer: 122 % of control

Question: What about the T/C (dose: 30.0 mg/kg/injection, schedule: Q04DX003 (ip), vehicle: Klucel (hydroxypropylcellulose) (HPC)) of the same compound?
Answer: 98 % of control

Question: And the T/C (dose: 66.0 mg/kg/injection, schedule: Q04DX003 (ip), vehicle: Klucel (hydroxypropylcellulose) (HPC))?
Answer: 152 % of control

Question: And the T/C (dose: 150.0 mg/kg/injection, schedule: Q04DX003 (ip), vehicle: Klucel (hydroxypropylcellulose) (HPC))?
Answer: 107 % of control

Question: For `CCOC(=O)C1(C(=O)OCC)CCC(OCC)N1C(=O)c1ccccc1[N+](=O)[O-]` (stereo unspecified), which T/C (dose: 25.0 mg/kg/injection, schedule: Q04DX003 (ip), vehicle: Klucel (hydroxypropylcellulose) (HPC)) is on record?
Answer: 94 % of control

Question: And the T/C (dose: 50.0 mg/kg/injection, schedule: Q04DX003 (ip), vehicle: Klucel (hydroxypropylcellulose) (HPC))?
Answer: 99 % of control

Question: And the T/C (dose: 100.0 mg/kg/injection, schedule: Q04DX003 (ip), vehicle: Klucel (hydroxypropylcellulose) (HPC))?
Answer: 89 % of control

Question: Which T/C (dose: 100.0 mg/kg/injection, schedule: Q04DX002 (ip), vehicle: Klucel (hydroxypropylcellulose) (HPC)) does the source give for `C=C(C)C(=O)Oc1ccccc1-c1ccccc1` here?
Answer: 100 % of control

Question: What about the T/C (dose: 200.0 mg/kg/injection, schedule: Q04DX002 (ip), vehicle: Klucel (hydroxypropylcellulose) (HPC)) of the same compound?
Answer: 96 % of control

Question: What about the T/C (dose: 400.0 mg/kg/injection, schedule: Q04DX002 (ip), vehicle: Klucel (hydroxypropylcellulose) (HPC)) of the same compound?
Answer: 92 % of control

Question: Which T/C (dose: 6.25 mg/kg/injection, schedule: Q01DX009 (ip), vehicle: saline with Tween-80) does the source give for `Clc1c(Cl)c(Cl)c([S][Pb]([c]2ccccc2)([c]2ccccc2)[c]2ccccc2)c(Cl)c1Cl` here?
Answer: 101 % of control

Question: And the T/C (dose: 12.5 mg/kg/injection, schedule: Q01DX009 (ip), vehicle: saline with Tween-80)?
Answer: 103 % of control

Question: And the T/C (dose: 25.0 mg/kg/injection, schedule: Q01DX009 (ip), vehicle: saline with Tween-80)?
Answer: 104 % of control and 88 % of control

Question: And the T/C (dose: 25.0 mg/kg/injection, schedule: Q04DX002 (ip), vehicle: saline with Tween-80)?
Answer: 96 % of control

Question: What about the T/C (dose: 50.0 mg/kg/injection, schedule: Q04DX002 (ip), vehicle: saline with Tween-80) of the same compound?
Answer: 99 % of control

Question: What about the T/C (dose: 100.0 mg/kg/injection, schedule: Q04DX002 (ip), vehicle: saline with Tween-80) of the same compound?
Answer: 86 % of control and 88 % of control

Question: With `O=C1OC(=O)C2CC(Cl)C(Cl)CC12` (stereo unspecified) as the compound, how does the T/C (dose: 100.0 mg/kg/injection, schedule: Q01DX009 (ip), vehicle: saline with Tween-80) read?
Answer: 89 % of control

Question: What about the T/C [3] of the same compound?
Answer: 89 % of control

Question: What about the T/C (dose: 200.0 mg/kg/injection, schedule: Q01DX009 (ip), vehicle: saline with Tween-80) of the same compound?
Answer: 86 % of control

Question: What about the T/C [4] of the same compound?
Answer: 100 % of control

Question: And the T/C (dose: 400.0 mg/kg/injection, schedule: Q01DX009 (ip), vehicle: saline with Tween-80)?
Answer: 89 % of control

Question: And the T/C [5]?
Answer: 104 % of control

Question: How did the T/C (dose: 12.5 mg/kg/injection, schedule: Q01DX009 (ip), vehicle: saline) turn out when `CN(C)CCC(=O)c1ccccc1` was run?
Answer: 101 % of control

Question: What about the T/C [6] of the same compound?
Answer: 101 % of control

Question: And the T/C (dose: 25.0 mg/kg/injection, schedule: Q04DX003 (ip), vehicle: saline)?
Answer: 105 % of control

Question: What about the T/C (dose: 50.0 mg/kg/injection, schedule: Q01DX001 (ip), vehicle: saline) of the same compound?
Answer: 103 % of control

Question: And the T/C [7]?
Answer: 98 % of control

Question: What about the T/C (dose: 50.0 mg/kg/injection, schedule: Q04DX003 (ip), vehicle: saline) of the same compound?
Answer: 101 % of control

Question: And the T/C [2]?
Answer: 103 % of control

Question: And the T/C [1]?
Answer: 100 % of control
